# In ChEMBL document CHEMBL1201862, “PubChem BioAssay data set” (2004):
# Activity calls are given as the source filed them. For most assays here, no stated cut-off is given here; in the data, actives have a measured IC50 and inactives only a lower limit.
# Experiments:
# Assay type in all cases: functional
# [1] = biological target: T1, Sentrin-specific protease 7 (Homo sapiens, UniProt Q9BQF6); assay: inhibition of human SENP7 cleavage activity – biochemical, luminescence, SAR follow-up (AID 504497)
# T1 sequence (Q9BQF6 whole entry): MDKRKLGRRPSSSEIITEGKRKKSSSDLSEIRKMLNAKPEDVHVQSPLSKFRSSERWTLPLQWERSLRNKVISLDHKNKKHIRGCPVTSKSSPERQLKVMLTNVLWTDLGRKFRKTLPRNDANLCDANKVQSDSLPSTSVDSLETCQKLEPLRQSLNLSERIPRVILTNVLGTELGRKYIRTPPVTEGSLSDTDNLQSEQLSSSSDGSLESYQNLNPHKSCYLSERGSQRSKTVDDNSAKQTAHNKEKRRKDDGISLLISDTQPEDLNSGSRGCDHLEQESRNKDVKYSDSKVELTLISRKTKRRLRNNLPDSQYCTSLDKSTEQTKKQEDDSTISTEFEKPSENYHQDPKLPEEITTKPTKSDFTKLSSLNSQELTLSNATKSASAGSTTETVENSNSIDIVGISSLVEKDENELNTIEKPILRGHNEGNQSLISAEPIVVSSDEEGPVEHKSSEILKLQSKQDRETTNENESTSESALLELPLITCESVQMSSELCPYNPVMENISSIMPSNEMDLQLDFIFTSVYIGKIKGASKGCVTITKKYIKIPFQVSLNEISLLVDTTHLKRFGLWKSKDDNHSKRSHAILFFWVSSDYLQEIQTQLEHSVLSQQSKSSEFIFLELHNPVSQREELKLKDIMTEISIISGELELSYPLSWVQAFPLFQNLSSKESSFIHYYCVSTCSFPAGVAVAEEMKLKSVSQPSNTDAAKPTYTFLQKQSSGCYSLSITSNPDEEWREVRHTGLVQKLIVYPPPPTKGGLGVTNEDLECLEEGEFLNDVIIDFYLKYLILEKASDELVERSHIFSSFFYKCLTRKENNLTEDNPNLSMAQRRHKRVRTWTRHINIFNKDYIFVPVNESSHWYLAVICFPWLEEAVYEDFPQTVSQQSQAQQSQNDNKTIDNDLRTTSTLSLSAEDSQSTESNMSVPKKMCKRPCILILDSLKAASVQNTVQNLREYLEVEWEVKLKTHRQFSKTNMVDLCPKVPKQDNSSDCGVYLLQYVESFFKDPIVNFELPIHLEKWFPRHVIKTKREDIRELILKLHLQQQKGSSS
# [2] = biological target: T2, Caspase-3 (Homo sapiens, UniProt P42574); assay: SAR Analysis of small molecule inhibitors of Sentrin-specific proteases (SENPs) using a Caspase-3 Selectivity assay. [Related pubchem assays (depositor defined):AID2540, AID2599, AID434973, AID489001]
# T2 sequence (P42574 whole entry): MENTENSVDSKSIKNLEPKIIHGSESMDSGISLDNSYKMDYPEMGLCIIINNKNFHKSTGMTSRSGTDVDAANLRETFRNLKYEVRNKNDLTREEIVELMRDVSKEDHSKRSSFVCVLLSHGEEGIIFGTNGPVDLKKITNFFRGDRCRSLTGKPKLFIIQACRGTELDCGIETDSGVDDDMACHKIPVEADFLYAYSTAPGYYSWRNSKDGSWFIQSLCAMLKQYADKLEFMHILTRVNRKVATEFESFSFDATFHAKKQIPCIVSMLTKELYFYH
# [3] = biological target: T3, Sentrin-specific protease 6 (Homo sapiens, UniProt Q9GZR1); assay: SAR Analysis of small molecule inhibitors of Sentrin-specific protease 6 (SENP6) using a Luminescent assay. [Related pubchem assays (depositor defined):AID2582, AID2599]
# T3 sequence (Q9GZR1 whole entry): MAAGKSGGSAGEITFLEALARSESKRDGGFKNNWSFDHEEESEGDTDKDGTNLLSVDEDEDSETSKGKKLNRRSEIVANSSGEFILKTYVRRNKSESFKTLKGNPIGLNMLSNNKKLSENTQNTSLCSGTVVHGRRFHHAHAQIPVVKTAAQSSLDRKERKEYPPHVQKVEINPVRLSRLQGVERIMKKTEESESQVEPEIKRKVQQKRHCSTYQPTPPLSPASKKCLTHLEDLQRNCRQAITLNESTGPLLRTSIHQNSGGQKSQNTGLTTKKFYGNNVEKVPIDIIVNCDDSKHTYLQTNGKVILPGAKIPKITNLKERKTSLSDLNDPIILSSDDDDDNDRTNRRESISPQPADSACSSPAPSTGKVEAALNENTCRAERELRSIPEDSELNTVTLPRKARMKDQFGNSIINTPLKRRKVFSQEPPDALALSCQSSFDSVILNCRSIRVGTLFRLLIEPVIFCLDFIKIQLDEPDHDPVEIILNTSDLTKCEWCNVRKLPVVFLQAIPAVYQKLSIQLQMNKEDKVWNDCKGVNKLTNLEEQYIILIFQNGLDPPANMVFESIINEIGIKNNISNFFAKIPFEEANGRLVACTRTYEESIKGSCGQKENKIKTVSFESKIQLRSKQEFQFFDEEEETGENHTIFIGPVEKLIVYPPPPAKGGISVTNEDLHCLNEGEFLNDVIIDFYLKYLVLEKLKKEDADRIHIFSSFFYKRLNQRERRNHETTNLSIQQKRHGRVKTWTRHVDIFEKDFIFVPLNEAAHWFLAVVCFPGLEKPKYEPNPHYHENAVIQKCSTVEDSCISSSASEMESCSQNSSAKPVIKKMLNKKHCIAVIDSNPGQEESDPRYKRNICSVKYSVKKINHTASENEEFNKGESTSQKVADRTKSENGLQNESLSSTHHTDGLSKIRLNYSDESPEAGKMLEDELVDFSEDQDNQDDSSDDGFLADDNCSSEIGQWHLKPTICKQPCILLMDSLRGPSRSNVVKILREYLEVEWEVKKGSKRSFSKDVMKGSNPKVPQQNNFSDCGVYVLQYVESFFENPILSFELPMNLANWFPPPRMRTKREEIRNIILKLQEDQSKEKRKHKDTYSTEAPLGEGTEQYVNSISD
# [4] = biological target: T4, Sentrin-specific protease 8 (Homo sapiens, UniProt Q96LD8); assay: inhibition of human SENP8 cleavage activity – biochemical, luminescence, SAR follow-up (AID 504501)
# T4 sequence (Q96LD8 whole entry): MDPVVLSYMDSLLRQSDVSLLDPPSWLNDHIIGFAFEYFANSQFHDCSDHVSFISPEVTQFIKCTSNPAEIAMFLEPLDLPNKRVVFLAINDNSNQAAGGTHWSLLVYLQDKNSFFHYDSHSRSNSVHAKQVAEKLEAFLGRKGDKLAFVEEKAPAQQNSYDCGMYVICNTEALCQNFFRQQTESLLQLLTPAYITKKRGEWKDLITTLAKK
# [5] = biological target: Aurora kinase B (Homo sapiens, UniProt Q96GD4)
# [6] = biological target: Aurora kinase A (Homo sapiens, UniProt O14965);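 further: value from the Navigating the Kinome kinase panel profiling, panel entry STK6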
# [7] = biological target: Vascular endothelial growth factor receptor 2 (Homo sapiens, UniProt P35968)
# Vascular endothelial growth factor receptor 2, sequence (P35968 whole entry): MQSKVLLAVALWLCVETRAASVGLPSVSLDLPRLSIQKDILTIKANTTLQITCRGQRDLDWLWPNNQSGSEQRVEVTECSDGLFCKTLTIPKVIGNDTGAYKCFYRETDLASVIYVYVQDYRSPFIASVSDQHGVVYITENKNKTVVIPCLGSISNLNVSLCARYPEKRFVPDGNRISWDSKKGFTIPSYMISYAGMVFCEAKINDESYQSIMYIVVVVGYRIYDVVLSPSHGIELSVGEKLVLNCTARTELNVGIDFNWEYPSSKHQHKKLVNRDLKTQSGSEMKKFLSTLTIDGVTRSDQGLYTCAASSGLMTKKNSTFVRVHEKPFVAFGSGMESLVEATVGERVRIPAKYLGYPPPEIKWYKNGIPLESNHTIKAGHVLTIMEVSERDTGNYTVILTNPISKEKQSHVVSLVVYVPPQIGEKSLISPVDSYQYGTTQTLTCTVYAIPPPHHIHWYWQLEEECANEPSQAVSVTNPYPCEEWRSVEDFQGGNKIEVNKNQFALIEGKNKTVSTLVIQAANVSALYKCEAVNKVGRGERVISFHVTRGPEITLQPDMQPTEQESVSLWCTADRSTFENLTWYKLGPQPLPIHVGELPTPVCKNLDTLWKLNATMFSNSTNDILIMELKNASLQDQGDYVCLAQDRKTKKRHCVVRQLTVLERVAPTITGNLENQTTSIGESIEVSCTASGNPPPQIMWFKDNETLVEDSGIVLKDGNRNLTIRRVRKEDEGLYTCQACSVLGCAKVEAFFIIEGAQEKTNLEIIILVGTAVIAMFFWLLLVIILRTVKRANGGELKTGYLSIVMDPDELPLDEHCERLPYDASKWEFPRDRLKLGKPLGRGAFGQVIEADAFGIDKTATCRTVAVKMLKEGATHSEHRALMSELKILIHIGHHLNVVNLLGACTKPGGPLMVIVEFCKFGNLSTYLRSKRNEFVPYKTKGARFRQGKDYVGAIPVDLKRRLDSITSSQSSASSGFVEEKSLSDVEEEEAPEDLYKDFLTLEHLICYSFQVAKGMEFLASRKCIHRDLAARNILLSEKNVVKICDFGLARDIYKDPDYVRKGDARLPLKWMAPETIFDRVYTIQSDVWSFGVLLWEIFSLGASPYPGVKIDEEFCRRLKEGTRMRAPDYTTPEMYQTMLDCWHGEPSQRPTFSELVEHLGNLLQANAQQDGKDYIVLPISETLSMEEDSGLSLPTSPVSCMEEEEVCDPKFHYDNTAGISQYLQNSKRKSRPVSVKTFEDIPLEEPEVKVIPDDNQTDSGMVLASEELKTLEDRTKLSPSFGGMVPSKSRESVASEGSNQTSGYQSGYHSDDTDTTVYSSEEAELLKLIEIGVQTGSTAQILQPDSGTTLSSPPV
# Aurora kinase A, sequence (O14965 whole entry): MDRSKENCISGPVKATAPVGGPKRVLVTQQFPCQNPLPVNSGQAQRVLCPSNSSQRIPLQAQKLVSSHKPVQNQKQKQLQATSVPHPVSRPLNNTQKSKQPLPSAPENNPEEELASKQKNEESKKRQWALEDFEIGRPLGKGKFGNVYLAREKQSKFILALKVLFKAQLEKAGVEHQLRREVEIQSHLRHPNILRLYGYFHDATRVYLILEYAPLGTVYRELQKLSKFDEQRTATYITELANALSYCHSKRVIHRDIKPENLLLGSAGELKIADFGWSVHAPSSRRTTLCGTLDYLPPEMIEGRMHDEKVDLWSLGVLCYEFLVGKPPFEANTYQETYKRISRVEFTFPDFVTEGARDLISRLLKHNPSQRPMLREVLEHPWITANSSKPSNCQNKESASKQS
# Aurora kinase B, sequence (Q96GD4 whole entry): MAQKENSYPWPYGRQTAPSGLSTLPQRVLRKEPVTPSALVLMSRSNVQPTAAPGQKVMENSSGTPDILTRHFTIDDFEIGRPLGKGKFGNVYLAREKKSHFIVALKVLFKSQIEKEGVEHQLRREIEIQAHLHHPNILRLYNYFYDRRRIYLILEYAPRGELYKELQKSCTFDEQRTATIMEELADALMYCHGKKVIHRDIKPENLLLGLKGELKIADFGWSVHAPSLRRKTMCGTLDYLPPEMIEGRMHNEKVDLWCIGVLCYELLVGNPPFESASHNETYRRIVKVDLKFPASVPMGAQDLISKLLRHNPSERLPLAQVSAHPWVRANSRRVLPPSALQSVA
SMILES,IC50 [1],IC50 [2],IC50 [3],IC50 [4],Ki [5],Ki [6],Ki [7]
N#Cc1ccc(-c2nc(/C=C/c3ccccc3)no2)cc1,> 99 µM (inactive),> 99 µM (inactive),> 99 µM (inactive),> 99 µM (inactive),–,–,–
O=C(Nc1ccc(-n2cnc3ccccc32)cc1)Nc1cccc(C(F)(F)F)c1,–,–,–,–,0.00251 µM (active),0.501 µM (active),0.00316 µM (active)
